Values joined by “and” are separate entries in the source; they are usually repeats but may differ in a detail not shown here. Equal entries are not always repeated.
Key:
Type in all cases: biochemical
firefly luciferase [1] = target: T1, firefly luciferase (Photinus pyralis, UniProt P08659); experiment: Effect of inhibitor on the bioluminescent assay of ATP; conditions: for RLU mean / RLU, triplicate aliquots 1, 2, 3: ATP in buffer, no kinase; for % of control: control = 0 mM PCMB
T1 construct: purchased Lumac/3M Lumit PM
T1 sequence (P08659 whole entry): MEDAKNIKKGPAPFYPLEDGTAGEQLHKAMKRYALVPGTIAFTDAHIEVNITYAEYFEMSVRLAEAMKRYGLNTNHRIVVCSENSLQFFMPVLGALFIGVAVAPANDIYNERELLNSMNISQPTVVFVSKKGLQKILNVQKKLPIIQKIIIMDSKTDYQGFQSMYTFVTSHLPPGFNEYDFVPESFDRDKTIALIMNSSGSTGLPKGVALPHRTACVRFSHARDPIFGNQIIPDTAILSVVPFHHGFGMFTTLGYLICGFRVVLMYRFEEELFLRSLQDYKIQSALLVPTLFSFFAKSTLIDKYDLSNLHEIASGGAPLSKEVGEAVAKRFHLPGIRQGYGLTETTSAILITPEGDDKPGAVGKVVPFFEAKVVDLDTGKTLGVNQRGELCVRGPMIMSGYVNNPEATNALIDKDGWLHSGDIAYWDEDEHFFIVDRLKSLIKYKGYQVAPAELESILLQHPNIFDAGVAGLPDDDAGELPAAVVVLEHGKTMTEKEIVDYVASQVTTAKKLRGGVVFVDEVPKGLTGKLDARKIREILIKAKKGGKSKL

firefly luciferase [2] = target: T1, firefly luciferase; experiment: as above
Method: Assay: from each sample triplicate 100 μl aliquots were taken. In those aliquots ATP was measured as described.
Assay: from each sample triplicate 100 μl aliquots were taken. ATP in those aliquots was measured as described.
Assay: From each sample triplicate 100 μl aliquots were taken and ATP was measured as described.
Protocol: Eight samples were prepared using materials described above and previously, as shown in TABLE 7-1 and incubated for various periods of time (i.e., 0, 5, 10 and […]) before aliquots were taken and assayed as described.
Protocol: Increasing concentrations of hexokinase, with and without PCMPSA were prepared according to TABLE 8-1 using materials described above and previously.

glycerokinase = experiment: Inhibition of glycerokinase (protection of ATP), bioluminescent ATP assay in buffer; conditions: for RLU 5 min. / RLU 10 min. / RLU 15 min. / RLU 0 min.: glycerokinase 1.6 U/ml; for RLU 5 min.: 5 min. after glycerol; for RLU 10 min.: 10 min. after glycerol; for RLU 15 min.: 15 min. after glycerol; for RLU 0 min.: before glycerol added
Method: Assay: Glycerol was added last to the samples to initiate the enzyme's activity. Before glycerol was added a 50 μl aliquot was taken from all samples. ATP levels in those aliquots (expressed in RLU) were determined as time zero values. Next glycerol was added to the mixtures and further 50 μl aliquots were taken at 5, 10, and 15 minutes. ATP in all aliquots was measured by bioluminescent means as described. Results:
Assay: Glycerol was added last to the samples to initiate the enzyme's activity. Before glycerol was added a 50 μl aliquot was taken from all samples as time zero. Next glycerol was added to the samples and after 5, 10 and 15 minutes, 50 μl aliquots were again taken. ATP in all aliquots was measured as described.
Assay: Glycerol was added last to the samples to initiate the enzyme's activity. Before glycerol was added a 50 μl aliquot was taken from all samples as time zero. At 5, 10 and 15 minutes after addition of glycerol further 50 μl aliquots were taken from the samples. ATP in all aliquots was measured as described.

[3] = PCMB 0.01 mM, ATP in buffer, no kinase

O=C(O)c1cc[c]([Hg][Cl])cc1 [PCMB, p-chloromercuribenzoic acid]
RLU mean (firefly luciferase [1]; PCMB 0.05 mM): 17508 RLU
RLU, triplicate aliquots 1, 2, 3 (firefly luciferase [1]; PCMB 0.05 mM): 17984 RLU and 17423 RLU and 17118 RLU
% of control (firefly luciferase [1]; PCMB 0.05 mM): 95%
RLU mean (firefly luciferase [1]; PCMB 0.1 mM): 18246 RLU
RLU, triplicate aliquots 1, 2, 3 (firefly luciferase [1]; PCMB 0.1 mM): 17914 RLU and 18720 RLU and 18505 RLU
% of control (firefly luciferase [1]; PCMB 0.1 mM): 99%
RLU mean (firefly luciferase [1]; PCMB 0.5 mM): 18142 RLU
RLU, triplicate aliquots 1, 2, 3 (firefly luciferase [1]; PCMB 0.5 mM): 18190 RLU and 18413 RLU and 17824 RLU
% of control (firefly luciferase [1]; PCMB 0.5 mM): 99%
RLU mean (firefly luciferase [1]; PCMB 1 mM): 13696 RLU
RLU, triplicate aliquots 1, 2, 3 (firefly luciferase [1]; PCMB 1 mM): 14576 RLU and 13556 RLU and 12956 RLU
% of control (firefly luciferase [1]; PCMB 1 mM): 75%
RLU mean (firefly luciferase [1]; PCMB 5 mM): 10 RLU
RLU, triplicate aliquots 1, 2, 3 (firefly luciferase [1]; PCMB 5 mM): 11 RLU and 10 RLU and 9 RLU
% of control (firefly luciferase [1]; PCMB 5 mM): < 1%
RLU mean (firefly luciferase [1]; PCMB 10 mM): 10 RLU
% of control (firefly luciferase [1]; PCMB 10 mM): < 1%
RLU mean (firefly luciferase [2]; [3]): 17887 RLU
RLU, triplicate aliquots 1, 2, 3 (firefly luciferase [2]; [3]): 17959 RLU and 18219 RLU and 17484 RLU
% of control (firefly luciferase [2]; PCMB 0.01 mM, control = 0 mM PCMB): 97%
interference with the bioluminescent assay (conclusion in words) (firefly luciferase [2]; PCMB 0.01-1mM): do not significantly interfere
RLU, triplicate aliquots 1, 2, 3 (firefly luciferase [2]; PCMB 10 mM, ATP in buffer, no kinase): 11 RLU and 10 RLU
RLU 5 min. (glycerokinase; PCMB 0.01 mM): 9121 RLU
RLU 10 min. (glycerokinase; PCMB 0.01 mM): 8982 RLU
RLU 15 min. (glycerokinase; PCMB 0.01 mM): 3913 RLU
RLU 0 min. (glycerokinase; PCMB 0.01 mM): 9065 RLU
RLU 5 min. (glycerokinase; PCMB 0.05 mM): 9048 RLU
RLU 10 min. (glycerokinase; PCMB 0.05 mM): 8727 RLU
RLU 15 min. (glycerokinase; PCMB 0.05 mM): 9049 RLU
RLU 0 min. (glycerokinase; PCMB 0.05 mM): 9003 RLU
RLU 5 min. (glycerokinase; PCMB 0.1 mM): 9560 RLU
RLU 10 min. (glycerokinase; PCMB 0.1 mM): 9253 RLU
RLU 15 min. (glycerokinase; PCMB 0.1 mM): 9421 RLU
RLU 0 min. (glycerokinase; PCMB 0.1 mM): 9499 RLU
RLU 5 min. (glycerokinase; PCMB 0.5 mM): 8800 RLU
RLU 10 min. (glycerokinase; PCMB 0.5 mM): 8617 RLU
RLU 15 min. (glycerokinase; PCMB 0.5 mM): 9028 RLU
RLU 0 min. (glycerokinase; PCMB 0.5 mM): 9041 RLU
RLU 5 min. (glycerokinase; PCMB 1 mM): 9437 RLU
RLU 10 min. (glycerokinase; PCMB 1 mM): 9329 RLU
RLU 15 min. (glycerokinase; PCMB 1 mM): 9591 RLU
RLU 0 min. (glycerokinase; PCMB 1 mM): 8802 RLU
RLU 5 min. (glycerokinase; PCMB 2 mM): 7245 RLU
RLU 10 min. (glycerokinase; PCMB 2 mM): 7905 RLU
RLU 15 min. (glycerokinase; PCMB 2 mM): 7568 RLU
RLU 0 min. (glycerokinase; PCMB 2 mM): 7987 RLU
inhibition of glycerokinase (conclusion in words) (glycerokinase; PCMB final concentration 0.01 mM): sufficiently inhibited
inhibition of glycerokinase (conclusion in words) (glycerokinase; PCMB, Samples 1-6 (0.01-2 mM)): very effective inhibitor of glycerokinase

— patent US4906565A, “Method for the selective detection of microbial nucleotides” (Minnesota Mining and Manufacturing Company, priority 1986, dated 1990)
